Values joined by “and” are separate entries in the source; they are usually repeats but may differ in a detail not shown here. Equal values may be shown once. Where a SMILES comes first, the peptide text is derived from it. [ ]: non-standard residue; d: D form. Hyp = O=C(O)[C@@H]1C[C@@H](O)CN1
Test system: CCL5/RANTES
Assay: Example 9 Luminex, LPS hPBMCs: CCL5/RANTES
Type: cell-based, human
Description: Treatment Human PBMCs were pretreated with YY-101, YDE-011 and YDE-043 or reference compound; Xiidra® at various concentration (ranging from 1 nM to 100 uM) for 2 h before stimulation. An equal volume of 0.5% DMSO was used as a vehicle control. Then, the cells were treated with LPS at 5 ug/ml. The supernatants from treated cells were harvested at 24 h and placed in a 96 well for Luminex cytokine & chemokine profiling using a Luminex 200 multiplex assay (Luminex; R&D system, USA).
The main study arm with triplicate wells per group in a 24-well plate: • 1. Blank • 2. PBMC: 0.5% DMSO • 3. PBMC+LPS (5 ug/ml) • 4. PBMC+YY-101 100 uM • 5. PBMC+YY-101 10 uM • 6. PBMC+YY-101 1 uM • 7. PBMC+YY-101 0.1 uM • 8. PBMC+YY-101 0.01 uM • 9. PBMC+LPS (5 ug/ml)+Xiidra®100 uM • 10. PBMC+LPS (5 ug/ml)+Xiidra® 10 uM • 11. PBMC+LPS (5 ug/ml)+Xiidra® 1 uM • 12. PBMC+LPS (5 ug/ml)+Xiidra®0.1 uM • 13. PBMC+LPS (5 ug/ml)+Xiidra®0.01 uM • 14. PBMC+LPS (5 ug/ml)+Xiidra®0.001 uM • 15. PBMC+LPS (5 ug/ml)+YY-101 100 uM • 16. PBMC+LPS (5 ug/ml)+YY-101 10 uM • 17. PBMC+LPS (5 ug/ml)+YY-101 1 uM • 18. PBMC+LPS (5 ug/ml)+YY-101 0.1 uM • 19. PBMC+LPS (5 ug/ml)+YY-101 0.01 uM • 20. PBMC+LPS (5 ug/ml)+YY-101 0.001 uM • 21. PBMC+LPS (5 ug/ml)+YDE-011 100 uM • 22. PBMC+LPS (5 ug/ml)+YDE-011 10 uM • 23. PBMC+LPS (5 ug/ml)+YDE-011 1 uM • 24. PBMC+LPS (5 ug/ml)+YDE-011 0.1 uM • 25. PBMC+LPS (5 ug/ml)+YDE-011 0.01 uM • 26. PBMC+LPS (5 ug/ml)+YDE-011 0.001 uM • 27. PBMC+LPS (5 ug/ml)+YDE-043 100 uM • 28. PBMC+LPS (5 ug/ml)+YDE-043 10 uM • 29. PBMC+LPS (5 ug/ml)+YDE-043 1 uM • 30. PBMC+LPS (5 ug/ml)+YDE-043 0.1 uM • 31. PBMC+LPS (5 ug/ml)+YDE-043 0.01 uM • 32. PBMC+LPS (5 ug/ml)+YDE-043 0.001 uM
Multiplex assay was used to measure 30 cytokines and chemokines. The 1:2, 1:10 and 1:200 diluted cell supernatant and serial dilution of the standard were dispensed into a 96 well plate at 50 ul/well. Then, the pre-mixed cocktail of antibody-coated magnetic beads was dispensed at 50 ul/well and incubated at room temperature for 2 h in a horizontal orbital microplate shaker at 800±500 rpm. The beads were washed using a magnetic device to prevent loss. The biotin-antibody was dispensed in 50 ul of each well and incubated at room temperature for 1 h in a shaker at 800±500 rpm. After washing, streptavidin-PE was added at 50 ul/well and incubated at room temperature for 30 min in a shaker under the same conditions. Finally, after washing, wash buffer (100 ul/well) was added to the plate and incubated in a shaker for 2 min. The Luminex™ 200 setting were set according to the manufacturer's protocol. The data was calculated with a standard five-parameter logistic nonlinear regression analysis of the data (xPonent software 4.2, USA). The levels of cytokine/chemokine are normalized to the live cell counts (1×10^5 cells/mL) and presented as concentrations per mL (pg/mL or ng/mL).

[1] = PBMC + LPS(5 ug/ml), test article 0.001 uM, Mean
[2] = PBMC + LPS(5 ug/ml), test article 0.001 uM, single replicates (1st, 2nd, 3rd)
[3] = PBMC + LPS(5 ug/ml), test article 0.01 uM, Mean
[4] = PBMC + LPS(5 ug/ml), test article 0.01 uM, single replicates (1st, 2nd, 3rd)
[5] = PBMC + LPS(5 ug/ml), test article 0.1 uM, Mean
[6] = PBMC + LPS(5 ug/ml), test article 0.1 uM, single replicates (1st, 2nd, 3rd)
[7] = PBMC + LPS(5 ug/ml), test article 1 uM, Mean
[8] = PBMC + LPS(5 ug/ml), test article 1 uM, single replicates (1st, 2nd, 3rd)
[9] = PBMC + LPS(5 ug/ml), test article 10 uM, Mean
[10] = PBMC + LPS(5 ug/ml), test article 10 uM, single replicates (1st, 2nd, 3rd)
[11] = PBMC + LPS(5 ug/ml), test article 100 uM, Mean
[12] = PBMC + LPS(5 ug/ml), test article 100 uM, single replicates (1st, 2nd, 3rd)
[13] = PBMC without LPS, test article 0.01 uM, Mean
[14] = PBMC without LPS, test article 0.01 uM, single replicates (1st, 2nd)
[15] = PBMC without LPS, test article 0.1 uM, Mean
[16] = PBMC without LPS, test article 0.1 uM, single replicates (1st, 2nd)
[17] = PBMC without LPS, test article 1 uM, Mean
[18] = PBMC without LPS, test article 1 uM, single replicates (1st, 2nd)
[19] = PBMC without LPS, test article 10 uM, Mean
[20] = PBMC without LPS, test article 10 uM, single replicates (1st, 2nd)
[21] = PBMC without LPS, test article 100 uM, Mean
[22] = PBMC without LPS, test article 100 uM, single replicates (1st, 2nd)

CC(C)C[C@H](NC(=O)CNC(=O)[C@H](CC(=O)O)NC(=O)[C@H](CCC(N)=O)NC(=O)CNC(=O)[C@@H]1C[C@@H](O)CN1)C(=O)N[C@@H](C)C(=O)NCC(=O)N1CCC[C@H]1C(=O)N[C@@H](CCCCN)C(=O)O [YY-101] (H-[Hyp]GQDGLAGPK-OH; N-terminus and C-terminus assumed)
Concentration (CCL5/RANTES) [1]: 402.3 pg/mL | MFI (Bead name: CCL5/RANTES) [1]: 1103.2 | conc/live cell (CCL5/RANTES) [1]: 62.7 pg/10^5 | Concentration (CCL5/RANTES) [2]: 407.4 pg/mL and 412.9 pg/mL and 386.6 pg/mL | MFI (Bead name: CCL5/RANTES) [2]: 1120.5 and 1139.5 and 1049.5 | conc/live cell (CCL5/RANTES) [2]: 71.5 pg/10^5 and 58.2 pg/10^5 and 58.6 pg/10^5 | Concentration (CCL5/RANTES) [3]: 454.1 pg/mL | MFI (Bead name: CCL5/RANTES) [3]: 1281.8 | conc/live cell (CCL5/RANTES) [3]: 73.6 pg/10^5 | Concentration (CCL5/RANTES) [4]: 476.2 pg/mL and 443.9 pg/mL and 442.2 pg/mL | MFI (Bead name: CCL5/RANTES) [4]: 1358.5 and 1246.5 and 1240.5 | conc/live cell (CCL5/RANTES) [4]: 74.4 pg/10^5 and 74.0 pg/10^5 and 72.5 pg/10^5 | Concentration (CCL5/RANTES) [5]: 428.0 pg/mL | MFI (Bead name: CCL5/RANTES) [5]: 1191.5 | conc/live cell (CCL5/RANTES) [5]: 73.5 pg/10^5 | Concentration (CCL5/RANTES) [6]: 432.4 pg/mL and 427.1 pg/mL and 424.5 pg/mL | MFI (Bead name: CCL5/RANTES) [6]: 1206.5 and 1188.5 and 1179.5 | conc/live cell (CCL5/RANTES) [6]: 69.7 pg/10^5 and 82.1 pg/10^5 and 68.5 pg/10^5 | Concentration (CCL5/RANTES) [7]: 430.6 pg/mL | MFI (Bead name: CCL5/RANTES) [7]: 1200.7 | conc/live cell (CCL5/RANTES) [7]: 66.2 pg/10^5 | Concentration (CCL5/RANTES) [8]: 456.2 pg/mL and 419.3 pg/mL and 416.4 pg/mL | MFI (Bead name: CCL5/RANTES) [8]: 1289.0 and 1161.5 and 1151.5 | conc/live cell (CCL5/RANTES) [8]: 72.4 pg/10^5 and 59.1 pg/10^5 and 67.2 pg/10^5 | Concentration (CCL5/RANTES) [9]: 430.1 pg/mL | MFI (Bead name: CCL5/RANTES) [9]: 1198.8 | conc/live cell (CCL5/RANTES) [9]: 65.2 pg/10^5 | Concentration (CCL5/RANTES) [10]: 422.8 pg/mL and 449.1 pg/mL and 418.4 pg/mL | MFI (Bead name: CCL5/RANTES) [10]: 1173.5 and 1264.5 and 1158.5 | conc/live cell (CCL5/RANTES) [10]: 70.5 pg/10^5 and 70.2 pg/10^5 and 55.1 pg/10^5 | Concentration (CCL5/RANTES) [11]: 336.7 pg/mL | MFI (Bead name: CCL5/RANTES) [11]: 881.7 | conc/live cell (CCL5/RANTES) [11]: 58.5 pg/10^5 | Concentration (CCL5/RANTES) [12]: 334.7 pg/mL and 330.4 pg/mL and 345.1 pg/mL | MFI (Bead name: CCL5/RANTES) [12]: 875.0 and 860.5 and 909.5 | conc/live cell (CCL5/RANTES) [12]: 53.1 pg/10^5 and 53.3 pg/10^5 and 69.0 pg/10^5 | Concentration (CCL5/RANTES) [13]: 36.8 pg/mL | MFI (Bead name: CCL5/RANTES) [13]: 52.0 | conc/live cell (CCL5/RANTES) [13]: 7.4 pg/10^5 | Concentration (CCL5/RANTES) [14]: 27.5 pg/mL and 46.1 pg/mL | MFI (Bead name: CCL5/RANTES) [14]: 37.5 and 66.5 | conc/live cell (CCL5/RANTES) [14]: 5.3 pg/10^5 and 9.6 pg/10^5 | Concentration (CCL5/RANTES) [15]: 36.2 pg/mL | MFI (Bead name: CCL5/RANTES) [15]: 50.5 | conc/live cell (CCL5/RANTES) [15]: 7.1 pg/10^5 | Concentration (CCL5/RANTES) [16]: 31.7 pg/mL and 40.7 pg/mL | MFI (Bead name: CCL5/RANTES) [16]: 43.5 and 57.5 | conc/live cell (CCL5/RANTES) [16]: 7.2 pg/10^5 and 7.0 pg/10^5 | Concentration (CCL5/RANTES) [17]: 35.3 pg/mL | MFI (Bead name: CCL5/RANTES) [17]: 49.0 | conc/live cell (CCL5/RANTES) [17]: 6.4 pg/10^5 | Concentration (CCL5/RANTES) [18]: 33.0 pg/mL and 37.6 pg/mL | MFI (Bead name: CCL5/RANTES) [18]: 45.5 and 52.5 | conc/live cell (CCL5/RANTES) [18]: 6.0 pg/10^5 and 6.8 pg/10^5 | Concentration (CCL5/RANTES) [19]: 79.0 pg/mL | MFI (Bead name: CCL5/RANTES) [19]: 136.0 | conc/live cell (CCL5/RANTES) [19]: 12.5 pg/10^5 | Concentration (CCL5/RANTES) [20]: 109.6 pg/mL and 48.3 pg/mL | MFI (Bead name: CCL5/RANTES) [20]: 201.5 and 70.5 | conc/live cell (CCL5/RANTES) [20]: 17.1 pg/10^5 and 7.9 pg/10^5 | Concentration (CCL5/RANTES) [21]: 67.1 pg/mL | MFI (Bead name: CCL5/RANTES) [21]: 107.0 | conc/live cell (CCL5/RANTES) [21]: 10.1 pg/10^5 | Concentration (CCL5/RANTES) [22]: 79.2 pg/mL and 55.0 pg/mL | MFI (Bead name: CCL5/RANTES) [22]: 131.5 and 82.5 | conc/live cell (CCL5/RANTES) [22]: 12.4 pg/10^5 and 7.9 pg/10^5
